Assay results taken from patent US20140011769A1, “Methods of Treating Retroviral Infections and Related Dosage Regimes” (Chimerix, Inc., priority 2012, published 2014).
Where two headings read alike, the source gives them in different places.

Legend:
[1] = Cell viability of infected PBMCs by trypan blue dye exclusion; assay type: cell-based, human; details: human, infected PBMCs, read-out: HTLV-I TC50; for CC50 at 2 weeks: 2 wks post infection; for CC50 at 3 weeks: 3 wks post infection; for CC50 at 4 weeks: 4 wks post infection
Method: (§1) Co-Culture for HTLV-I Replication: Cell cultures were incubated at 37° C./5% CO2 for four weeks. Cell viability and density was monitored by trypan blue dye exclusion test. Cell density was readjusted to 8×10^5 cells per mL on days 3, 7, 10, 14, 21 and 28. Compound was added with the half-volume fresh medium exchange on days 3, 7, and 10. Supernatant was collected on days 14, 21 and 28 for measurement of HTLV-I virus replication by p19 Gag ELISA. Cell samples were also collected on days 14 and 28 for genomic DNA extraction and PCR analysis of HTLV-I proviral DNA. Untreated PBMCs co-cultured with MT-2 cells, PBMCs alone, and mitomycin C-treated MT-2 cells alone were cultured in parallel as controls.
(§2) Anti-HTLV-I Evaluations: HDP-TFV K^+ salt and tenofovir were evaluated for HTLV-I inhibition in human PBMCs co-cultured with mitomycin C treated MT-2 cells at four concentrations of each compound. AZT was evaluated in parallel as a control compound. […] Cell viability was monitored by trypan blue dye exclusion. AZT and tenofovir were not toxic to the infected PBMCs at concentrations up to 25 μM at 2, 3, or 4 weeks post infection.
as §2, with “Evaluations: HDP-CDV” for “Evaluations: HDP-TFV K^+ salt”, “and cidofovir” for “and tenofovir”, “AZT was” for “AZT and tenofovir were”

infected PBMCs = assay: as above; assay type: cell-based, human; details: for toxicity as fresh compound was added to the cultures up to day 10: infected PBMC cultures; for CC50: infected PBMCs, read-out: HTLV-I TC50
Method: as §1, §2
as §2, with “Evaluations: HDP-CDV” for “Evaluations: HDP-TFV K^+ salt”, “and cidofovir” for “and tenofovir”, “AZT was” for “AZT and tenofovir were”

HTLV-I proviral DNA = assay: PCR of proviral HTLV-I DNA in co-cultured PBMCs; assay type: cell-based; details: for relative intensity of amplified HTLV-I versus infected controls (PBMC+MT-2 cells): two and four weeks, all concentrations; for concentration giving less integration of proviral DNA by PCR: weeks 2 and 4
Method: as §1
(§3) PCR of Proviral HTLV-I DNA: The presence of HTLV-I proviral DNA at 2 and 4 weeks in treated and untreated PBMC cells was examined using a PCR assay. Total DNA was extracted from frozen cell pellets using Qiagen DNEasy Blood and Tissue kits according to the manufacturer's recommended method for extraction from cultured cells. DNA was eluted in 200 μl of Buffer AE and the concentration was determined by absorbance at 260 nm in a Spectramax 386 Plus plate reader. Fifty nanograms of extracted DNA was subjected to two separate PCR amplifications using primer sets for HTLV-I and human GAPDH. Amplifications were performed using PCR primer sets designed at ImQuest BioSciences and synthesized by IDT (Coraville, Id.). Amplification of HTLV-I proviral DNA was performed using 50 ng of extracted DNA in a 25 μl reaction volume with TaqPro complete (Denville Scientific, Metuchen, N.J.) and DNA oligonucleotide primers (0.2 μM each) HTLV-3281-F (5′-AACTTCAAGCCCTACTTGGCGAGA-3′[SED ID NO.: 1]) and HTLV-3666-R (5′-TGTATGGTTTGGCAGAGTAGCCCA-3′ [SED ID NO.: 2]). Amplification of human GAPDH DNA sequences was performed using 50 ng of extracted DNA in a 25 μl reaction volume with TaqPro complete and DNA oligonucleotide primers (0.2 μM each) hGAPDH-gF1 (5′-GAAGGAAATGAATGGGCAGCCGTT-3′ [SED ID NO.: 3]) and GAPDH-gR1 (5′-ATTTGCCAAGTTGCCTGTCCTTCC-3′ [SED ID NO.: 4]). Amplification conditions for both HTLV-I and GAPDH consisted of an initial denaturation step of 95° C. for 5 min followed by 40 cycles of 95° C. for 30 sec, 62° C. for 30 sec, 72° C. for 45 sec and a final extension of 72° C. for 5 min. The amplified DNA products were evaluated by agarose gel electrophoresis and ethidium bromide staining.
as §3, with “AGA-3′ [SED” for “AGA-3′[SED”, “5])” for “1])”, “6]).” for “2]).”, “7])” for “3])”, “8]). […]” for “4]). Amplification conditions for both HTLV-I and GAPDH consisted of an initial denaturation step of 95° C. for 5 min followed by 40 cycles of 95° C. for 30 sec, 62° C. for 30 sec, 72° C. for 45 sec and a final extension of 72° C. for 5 min. The amplified DNA products were evaluated by agarose gel electrophoresis and ethidium bromide staining.”

[2] = concentrations up to 25 μM at 2, 3, or 4 weeks post infection

| Structure (SMILES) | CC50 at 2 weeks [1] [µM] | CC50 at 3 weeks [1] [µM] | CC50 at 4 weeks [1] [µM] | toxicity to the infected PBMCs (infected PBMCs; [2]) | relative intensity of amplified HTLV-I versus infected controls (PBMC+MT-2 cells) (HTLV-I proviral DNA) | concentration giving less integration of proviral DNA by PCR (HTLV-I proviral DNA) | toxicity to the infected PBMCs (infected PBMCs; 100 μM, following 4 weeks in culture) | concentration inhibiting accumulation of HTLV proviral DNA (HTLV-I proviral DNA; two weeks of treatment) [µM] | toxicity as fresh compound was added to the cultures up to day 10 (infected PBMCs) | concentration inhibiting accumulation of HTLV proviral DNA (HTLV-I proviral DNA; four weeks of treatment) | inhibition of HTLV proviral DNA accumulation (HTLV-I proviral DNA; four weeks of treatment, lower concentrations) | CC50 (infected PBMCs; 2 wks post infection) [µM] | CC50 (infected PBMCs; 3 wks post infection) [µM] | CC50 (infected PBMCs; 4 wks post infection) [µM] |
| --- | --- | --- | --- | --- | --- | --- | --- | --- | --- | --- | --- | --- | --- | --- |
| Cc1cn([C@H]2C[C@H](N=[N+]=[N-])[C@@H](CO)O2)c(=O)[nH]c1=O [AZT, 3′-azido-2′,3′-dideoxythymidine] | > 25 | > 25 | > 25 | not toxic | either equal or less than | above 0.1 μM |  |  |  |  |  |  |  |  |
| Nc1ccn(C[C@@H](CO)OCP(=O)(O)O)c(=O)n1 [Cidofovir, (S)-9-(3-hydroxy-2-phosphonylmethoxypropyl)cytosine] | > 100 | > 100 | 80 |  |  |  | slightly toxic | 100 |  |  |  |  |  |  |
| CCCCCCCCCCCCCCCCOCCCOP(=O)(O)CO[C@H](CO)Cn1ccc(N)nc1=O [HDP-CDV, hexadecyloxypropyl cidofovir] | 7.5 | 3.2 | 1.4 |  |  |  |  | ≥ 0.2 | increasingly toxic | all concentrations |  |  |  |  |
| CCCCCCCCCCCCCCCCOCCCOP(=O)(O)CO[C@H](C)Cn1cnc2c(N)ncnc21 [HDP-TFV, 3-(hexadecyloxy)propyl hydrogen ((R)-1-(6-amino-9H-purin 9-yl)propan-2-yloxy)methylphosphonate] | > 10 | 6.3 | 1 |  |  |  |  |  | increasingly toxic |  | apparent |  |  |  |
| C[C@H](Cn1cnc2c(N)ncnc21)OCP(=O)(O)O [Tenofovir, (R)-9-(2-phosphonylmethoxypropyl)adenine] |  |  |  | not toxic | either equal or less than | 25 µM |  |  |  |  |  | > 25 | > 25 | > 25 |
